Measured values from patent US7700593B2, “Imidazo- and triazolo-pyridine compounds and methods of use thereof” (Amgen Inc., priority 2006, dated 2010).
Where two headings read alike, the source gives them in different places.

Key:
p38α = p38α (Homo sapiens, UniProt Q16539); test: p38 in-vitro HTRF enzyme assay; assay type: biochemical; details: IC50 value ranges
In short: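 Activated recombinant human p38α with ATP and 100 nM GST-ATF2-Avitag, 1 h at RT in Tris pH 7.5/MgCl2 buffer; compound 10-point 3-fold series from about 1 μM final. HTRF 665/620 nm ratio; IC50 from 4-parameter fit, Ki via Cheng-Prusoff with experimental ATP Km.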

THP1 cells = test: Lipopolysaccharide-activated THP1 cell TNF production assay; assay type: cell-based, human; details: LPS-induced TNF-α production in THP1 cells
In short: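 THP1 cells at 1E6/mL were stimulated with LPS (1 μg/mL prepared stock) alongside 3-fold serially diluted compound for 3 h at 37 °C. Secreted TNF-α was quantified by electrochemiluminescence sandwich immunoassay. Percent of DMSO control was fitted to a 4-parameter logistic equation.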

monocytes = test: Lipopolysaccharide-activated monocyte TNF production assay (LPS induced TNF release); assay type: cell-based, human; details: LPS induced TNF release from monocytes, read-out: LPS induced TNFa
In short: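 Adherent monocytes from human PBMCs were pretreated with compound 60 min, then stimulated with E. coli LPS (30 ng/mL stock added) for 4 h at 37 °C. Supernatant TNF-α measured by sandwich ELISA; concentration giving 50% TNF reduction derived by polynomial fit.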

Sequence of p38α (Q16539 whole entry): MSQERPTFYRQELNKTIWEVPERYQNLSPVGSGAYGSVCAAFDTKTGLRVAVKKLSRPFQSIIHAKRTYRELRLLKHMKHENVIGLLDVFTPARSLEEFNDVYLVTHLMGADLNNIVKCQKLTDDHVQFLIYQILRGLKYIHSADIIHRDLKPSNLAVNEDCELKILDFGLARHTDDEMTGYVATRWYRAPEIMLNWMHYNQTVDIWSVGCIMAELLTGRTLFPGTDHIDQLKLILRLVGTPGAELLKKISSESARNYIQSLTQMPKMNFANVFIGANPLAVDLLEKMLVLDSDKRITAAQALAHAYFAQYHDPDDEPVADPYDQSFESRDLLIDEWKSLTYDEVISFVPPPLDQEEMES

SMILES | IC50 (p38α) [nM] | IC50 (THP1 cells; Homo sapiens, THP-1) [nM] | IC50 (monocytes; Homo sapiens, Monocyte) [nM] | IC50 (THP1 cells; read-out: THP-1 cell assay) [nM] | IC50 (monocytes) [nM]
Cc1ccc(C(=O)NC2CC2)cc1-c1ccn2c(N3CCCC3)nnc2c1 [Example 96, N-cyclopropyl-4-methyl-3-(3-(1-pyrrolidinyl)[1,2,4]triazolo[4,3-a]pyridin-7-yl)benzamide] | < 25 | 25 to 100 | 250 to 1000 | – | –
Cc1ccc(C(=O)NC2CC2)cc1-c1ccn2c(C34CC5CC(CC(C5)C3)C4)nnc2c1 [Example 98, N-cyclopropyl-4-methyl-3-(3-((3s,5s,7s)-tricyclo[3.3.1.1~3,7~]dec-1-yl)[1,2,4]triazolo[4,3-a]pyridin-7-yl)benzamide] | < 25 | – | – | 25 to 100 | 100 to 250
Cc1ccc(C(=O)NC2CC2)cc1-c1ccn2c(N3CCOCC3)nnc2c1 [Example 101, N-cyclopropyl-4-methyl-3-(3-(4-morpholinyl)[1,2,4]triazolo[4,3-a]pyridin-7-yl)benzamide] | 25 to 100 | 100 to 250 | 100 to 250 | – | –
Cc1ccc(C(=O)NC2CC2)cc1-c1ccn2c(C(F)(F)F)nnc2c1 [Example 102, N-cyclopropyl-4-methyl-3-(3-(trifluoromethyl)[1,2,4]triazolo[4,3-a]pyridin-7-yl)benzamide] | 100 to 250 | 250 to 1000 | 250 to 1000 | – | –
CCc1ccccc1-c1nnc2cc(-c3cc(C(=O)NC4CC4)ccc3C)ccn12 [Example 103, N-cyclopropyl-3-(3-(2-ethylphenyl)[1,2,4]triazolo[4,3-a]pyridin-7-yl)-4-methylbenzamide] | < 25 | 25 to 100 | 100 to 250 | – | –

The remaining lines, values ahead:

IC50 (p38α) [nM] | IC50 (THP1 cells; Homo sapiens, THP-1) [nM] | IC50 (monocytes; Homo sapiens, Monocyte) [nM] | IC50 (THP1 cells; read-out: THP-1 cell assay) [nM] | IC50 (monocytes) [nM] | SMILES
< 25 | < 25 | 25 to 100 | – | – | Cc1ccc(C(=O)NC2CC2)cc1-c1ccn2c(C3CCCC3)nnc2c1 [Example 95, 3-(3-cyclopentyl[1,2,4]triazolo[4,3-a]pyridin-7-yl)-N-cyclopropyl-4-methylbenzamide]
< 25 | 25 to 100 | 100 to 250 | – | – | Cc1ccc(C(=O)NC2CC2)cc1-c1ccn2c(C3CCOCC3)nnc2c1 [Example 97, N-cyclopropyl-4-methyl-3-(3-(tetrahydro-2H-pyran-4-yl)[1,2,4]triazolo[4,3-a]pyridin-7-yl)benzamide]
< 25 | 25 to 100 | 250 to 1000 | – | – | Cc1ccc(C(=O)NC2CC2)cc1-c1ccn2c(N3CCCCC3)nnc2c1 [Example 99, N-cyclopropyl-4-methyl-3-(3-(1-piperidinyl)[1,2,4]triazolo[4,3-a]pyridin-7-yl)benzamide]
< 25 | 25 to 100 | 100 to 250 | – | – | Cc1ccc(C(=O)NC2CC2)cc1-c1ccn2c(-c3ccccc3C(F)(F)F)nnc2c1 [Example 104, N-cyclopropyl-4-methyl-3-(3-(2-(trifluoromethyl)phenyl)[1,2,4]triazolo[4,3-a]pyridin-7-yl)benzamide]
< 25 | 25 to 100 | 25 to 100 | – | – | Cc1ccc(C(=O)NC2CC2)cc1-c1ccn2c(C(C)(C)C)nnc2c1 [Example 105, N-cyclopropyl-3-(3-(1,1-dimethylethyl)[1,2,4]triazolo[4,3-a]pyridin-7-yl)-4-methylbenzamide]
< 25 | < 25 | < 25 | – | – | Cc1ccc(C(=O)Nc2ccon2)cc1-c1ccn2c(-c3c(F)cccc3F)nnc2c1 [Example 106, 3-(3-(2,6-difluorophenyl)[1,2,4]triazolo[4,3-a]pyridin-7-yl)-N-3-isoxazolyl-4-methylbenzamide]
